According to the supplement of paper PMC10307832:

Legend:
Assay in all cases: relative viability (nuclei count vs DMSO), 5 days (fraction); higher = more cells survive
Axitinib + Pemetrexed = compound: CNC(=O)c1ccccc1Sc1ccc2c(/C=C/c3ccccn3)n[nH]c2c1 [Axitinib] + Nc1nc2[nH]cc(CCc3ccc(C(=O)N[C@@H](CCC(=O)O)C(=O)O)cc3)c2c(=O)[nH]1 [Pemetrexed] (partner 0.2 µM)
Outline: (§1)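 Relative viability equals treated-well nuclei counts divided by vehicle-well nuclei counts. Counts came from 4× images of lung cancer cell lines grown in 1536-well plates for 5 days after pin-tool dosing on the day after seeding. Dosing used one drug alone or a fixed anchor-drug dose plus five library-drug doses (not always all listed) in √10 steps, and values are medians of duplicate plates.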

[1] = compound: CC1=CC=C(C=C1)C(=O)CN2C3=C(CCCC3)SC2=N [Pifithrin_alpha] + CC(C)C[C@H](NC(=O)[C@H](Cc1ccccc1)NC(=O)c1cnccn1)B(O)O [Bortezomib] (partner 0.002 µM)
Outline: as §1

[2] = compound: CC1=CC=C(C=C1)C(=O)CN2C3=C(CCCC3)SC2=N [Pifithrin_alpha] + C[C@]1(O)C[C@@H](c2nc(-c3ccc4ccc(-c5ccccc5)nc4c3)c3c(N)nccn32)C1 [Linsitinib] (partner 1 µM)
Outline: as §1

Bemcentinib + OSI-027 = compound: Nc1nc(Nc2ccc3c(c2)CC[C@@H](N2CCCC2)CC3)nn1-c1cc2c(nn1)-c1ccccc1CCC2 [Bemcentinib] + COc1cccc2cc(-c3nc([C@H]4CC[C@H](C(=O)O)CC4)n4ncnc(N)c34)[nH]c12 [OSI-027] (partner 0.5 µM)
Outline: as §1

Cell Line	relative viability (Axitinib + Pemetrexed; first compound 0.005 µM)	relative viability (Axitinib + Pemetrexed; first compound 0.01581 µM)	relative viability (Axitinib + Pemetrexed; first compound 0.05 µM)	relative viability (Axitinib + Pemetrexed; first compound 0.1581 µM)	relative viability (Axitinib + Pemetrexed; first compound 0.5 µM)	relative viability ([1]; first compound 1 µM)	relative viability ([1]; first compound 3.162 µM)	relative viability ([1]; first compound 10 µM)	relative viability ([1]; first compound 31.62 µM)	relative viability ([1]; first compound 100 µM)	relative viability ([2]; first compound 1 µM)	relative viability ([2]; first compound 3.162 µM)	relative viability ([2]; first compound 10 µM)	relative viability ([2]; first compound 100 µM)	relative viability (Bemcentinib + OSI-027; first compound 0.04 µM)	relative viability (Bemcentinib + OSI-027; first compound 0.1265 µM)	relative viability (Bemcentinib + OSI-027; first compound 0.4 µM)	relative viability (Bemcentinib + OSI-027; first compound 4 µM)	relative viability (Bemcentinib + OSI-027; first compound 1.265 µM)	relative viability ([2]; first compound 31.62 µM)
HCC-78	0.919	0.941	0.933	0.974	0.962	0.415	0.394	0.472	0.418	0.477	0.481	0.54	0.513	0.584	0.343	0.348	0.38	0.371	–	–
HCC-366	0.151	0.168	0.182	0.208	0.224	1.33	0.706	1.07	–	1.1	0.512	0.508	0.581	0.469	0.803	1.17	0.921	0.898	0.875	–
HCC-827	0.228	0.158	0.279	0.296	0.275	0.961	1.14	0.987	0.903	0.981	0.942	0.96	0.91	0.841	0.816	0.927	0.862	0.848	0.84	0.589
HOP-62	0.378	0.328	0.31	0.41	0.482	0.92	0.983	0.955	0.514	1.14	1.01	0.979	1.18	1.07	0.958	0.904	0.845	0.9	0.853	0.781
IA-LM	–	–	–	–	–	0.984	0.415	0.281	0.33	0.339	0.784	0.554	0.272	0.267	–	–	–	–	–	0.501
LC-2-ad	0.261	0.257	0.268	0.271	0.277	0.892	1.04	0.976	0.767	0.768	0.849	0.846	0.804	0.767	0.892	0.906	0.761	0.927	0.964	0.547
LCLC-97TM1	0.203	0.188	0.176	0.186	0.181	–	0.596	0.397	–	0.487	–	0.207	0.206	0.225	0.649	0.527	0.538	0.598	0.542	–
LK-2	0.26	0.216	0.234	0.258	0.242	–	–	–	–	–	0.608	0.728	0.544	0.646	0.171	0.229	0.206	0.19	0.186	–
NCI-H358	0.166	0.154	0.182	0.173	0.181	–	–	–	–	–	0.777	0.83	0.671	0.541	0.799	0.952	0.837	0.939	0.99	0.547
